Test results published in patent publication US10519107B2, “Sulfonamide compounds and their use as STAT5 inhibitors” (Governing Council of the University of Toronto, priority 2014, dated 2019).
“Also recorded” adds a separate entry of the source.

Key:
[1] = biological target: T1, wildtype STAT5B protein (SH2 domain) (Homo sapiens, UniProt P51692); experiment: Fluorescence polarization competitive binding, STAT5b; details: FP
T1 sequence (P51692 1-787): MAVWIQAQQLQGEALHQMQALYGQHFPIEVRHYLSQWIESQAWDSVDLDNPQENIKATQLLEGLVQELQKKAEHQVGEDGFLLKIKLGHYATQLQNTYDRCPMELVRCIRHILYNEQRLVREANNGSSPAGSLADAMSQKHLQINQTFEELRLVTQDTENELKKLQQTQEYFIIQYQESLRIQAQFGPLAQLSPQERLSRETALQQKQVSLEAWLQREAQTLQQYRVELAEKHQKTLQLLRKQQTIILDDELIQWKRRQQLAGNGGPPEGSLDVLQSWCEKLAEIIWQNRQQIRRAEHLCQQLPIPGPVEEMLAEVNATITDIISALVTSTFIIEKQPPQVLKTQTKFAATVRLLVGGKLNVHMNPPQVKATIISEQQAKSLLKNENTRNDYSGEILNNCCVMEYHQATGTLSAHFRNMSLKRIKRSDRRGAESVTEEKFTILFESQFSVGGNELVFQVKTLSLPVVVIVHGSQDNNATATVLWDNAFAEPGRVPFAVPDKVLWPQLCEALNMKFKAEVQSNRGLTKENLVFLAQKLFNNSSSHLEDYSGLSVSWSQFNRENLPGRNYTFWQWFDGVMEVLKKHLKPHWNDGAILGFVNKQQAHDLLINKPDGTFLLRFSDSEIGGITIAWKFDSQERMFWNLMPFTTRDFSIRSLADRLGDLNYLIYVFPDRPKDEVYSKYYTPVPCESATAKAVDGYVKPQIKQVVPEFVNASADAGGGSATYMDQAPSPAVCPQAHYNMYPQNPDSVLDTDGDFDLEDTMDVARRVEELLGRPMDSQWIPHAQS
Procedure: Fluorescence assays were performed in flat black 384-well plates (Corning) and fluorescence polarization measurements were taken with the Infinite M1000 machine (Tecan, Crailsheim, Germany). The buffer conditions for all assays were 20 mM HEPES, 50 mM NaCl, 1 mM EDTA, 2 mM dithiothreitol, pH 7.5 and the final DMSO concentration in the wells was kept constant at 10%.
The point at which 80% of the fluoresceinated-phosphopeptide was bound was used as the optimal protein concentration required for the competitive fluorescent polarization assays.
Compounds were titrated at concentrations ranging from 1->60,000 nM and incubated for a further 15 minutes at which point fluorescence polarization measurements were taken in triplicate. The final well concentrations of the fluoresceinated-phosphopeptide and STAT5B were 10 nM and 250 nM, respectively.
The resulting fluorescence polarization measurements were normalized and plotted against compound concentration on a logarithmic scale. The raw data was fitted with a standard dose-normalized response inhibition curve using GraphPad Prism 6 software.
Modified Cheng-Pruskoff equation containing a correction factor for protein concentration.

[2] = test system: 120 representative kinases (incl. JAK 1/2, ABL, FLT-3); experiment: KINOMEscan (DiscoverX) kinase profiling; assay type: binding; details: 5 μM, 120 kinases incl. JAK 1/2, ABL, qPCR
Procedure: KINOMEscan kinase profiling was performed as previously described (Fabian et al., 2005; Karaman et al., 2008). For most assays, kinase-tagged T7 phage strains were grown in parallel in 24-well blocks in an E. coli host derived from the BL21 strain. E. coli were grown to log-phase and infected with T7 phage from a frozen stock (multiplicity of infection=0.4) and incubated with shaking at 32° C. until lysis (90-150 minutes). The lysates were centrifuged (6,000×g) and filtered (0.2 μm) to remove cell debris. The remaining kinases were produced in HEK-293 cells and subsequently tagged with DNA for qPCR detection as previously described (Wodicka et al., 2010). […] The liganded beads were blocked with excess biotin and washed with blocking buffer (SeaBlock (Pierce), 1% BSA, 0.05% Tween 20, 1 mM DTT) to remove unbound ligand and to reduce non-specific phage binding. […] All reactions were performed in polypropylene 384-well plates in a final volume of 0.04 ml. […] The kinase concentration in the eluates was measured by qPCR and the data presented as % Ctrl (FIG. 1).

pSTAT5 = experiment: Western blotting of pSTAT5 in MV-4;11 cells; assay type: cell-based, Human
Description: Correspondingly, western blot analysis for protein levels of pSTAT5 and downstream target gene expression were also investigated within the AML cell line, MV-4; 11.

[3] = test system: healthy human CD34+ umbilical cord cells; experiment: Cell viability, healthy CD34+ umbilical cord cells; assay type: cell-based
[4] = Metabolic stability in human hepatocytes; assay type: in vitro ADME; details: 120 min
Procedure: 13a was then evaluated within intact human and mouse hepatocytes. Like the s9 fractions, Verapamil was used as a positive control in the assay. Cryopreserved hepatocytes were thawed and plated to a working cell density of 0.5×10^6 viable cell/mL.

STAT3 = STAT3 (Homo sapiens, UniProt P40763); experiment: SPR binding, His-tagged STAT3; details: 25° C., Langmuir 1:1 binding model
Chain of STAT3 (P40763 whole entry): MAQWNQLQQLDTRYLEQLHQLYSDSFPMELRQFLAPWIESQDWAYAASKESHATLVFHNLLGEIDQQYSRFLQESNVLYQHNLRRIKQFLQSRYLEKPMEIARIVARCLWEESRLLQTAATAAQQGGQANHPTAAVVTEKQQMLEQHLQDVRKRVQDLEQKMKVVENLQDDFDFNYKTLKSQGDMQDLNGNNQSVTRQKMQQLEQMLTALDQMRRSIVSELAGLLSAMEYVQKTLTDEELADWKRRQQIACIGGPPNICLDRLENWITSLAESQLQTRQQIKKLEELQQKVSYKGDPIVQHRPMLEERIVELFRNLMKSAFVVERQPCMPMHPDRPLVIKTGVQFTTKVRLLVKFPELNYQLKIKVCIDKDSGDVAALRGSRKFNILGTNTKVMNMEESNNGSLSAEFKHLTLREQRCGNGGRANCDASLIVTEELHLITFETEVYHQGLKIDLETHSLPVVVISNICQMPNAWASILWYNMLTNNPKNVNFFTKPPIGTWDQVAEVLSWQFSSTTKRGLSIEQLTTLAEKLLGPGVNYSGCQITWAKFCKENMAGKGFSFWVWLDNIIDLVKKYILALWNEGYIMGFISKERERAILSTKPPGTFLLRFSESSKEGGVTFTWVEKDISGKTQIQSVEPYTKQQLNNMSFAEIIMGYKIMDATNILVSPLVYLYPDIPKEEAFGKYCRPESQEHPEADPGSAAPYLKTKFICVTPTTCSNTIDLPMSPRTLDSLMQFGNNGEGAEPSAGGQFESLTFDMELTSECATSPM
Procedure: Interactions of His-tagged STAT3 and STAT5 with small molecules were investigated using SPR spectroscopy. The binding experiments were carried on a ProteOn XPR36 (Bio-Rad) biosensor at 25° C. using the HTE sensor chip (Bio-Rad, Ontario, Canada). The flow cells of the sensor chip were loaded with a nickel solution at 30 μL/min for 120 s to saturate the Tris-NTA surface with Ni(II) ions. […] When the injection of the compounds was completed, running buffer was allowed to flow over the immobilized substrates for the non-specifically bound inhibitors to dissociate for 600 s. Following dissociation of the compounds, the chip surface was regenerated with an injection of 1 M NaCl at a flow rate of 100 μL/min for 18 s. Interspot channel reference was used for non-specific binding corrections and the blank channel used with each analyte injection served as a double reference to correct for possible baseline drift. Data were analysed using ProteOn Manager Software version 3.1.

In the case of `CC(C)(C)c1cc(CN(C(=O)CN(Cc2ccc(Cl)cc2)S(=O)(=O)c2c(F)c(F)c(F)c(F)c2F)c2ccc(C(=O)O)c(O)c2)cc(C(C)(C)C)c1` [Compound 13a, 4-(2-((N-(4-chlorobenzyl)-2,3,4,5,6-pentafluorophenyl)sulfonamido)-N-(3,5-di-tert-butylbenzyl)acetamido)-2-hydroxybenzoic Acid], the IC50 ([1]; 5-FAM-GpYLVLDKW 10 nM, STAT5B 250 nM) is reported as 370 nM, the Ki ([1]; converted from IC50 with Equation 1) is reported as 150 nM and the “effects against the bank of kinases” value [2] is reported as “negligible effects”. For the same molecule, the pSTAT5 level (pSTAT5; MV-4;11, 5 h) was “dose-dependent decrease”, the pSTAT5 phosphorylation (pSTAT5; MV-4;11, 24 h, 10 μM) was “complete ablation” and the “effect on cell viability of healthy CD34+ cells” value ([3]; 10 μM) was “little reduction in cell viability; also recorded: little effect”. The “difference in sensitivity CD34+ vs MV-4;11 cells” value ([3]; therapeutic window) was “approximate order of magnitude difference”, the “recovered in human hepatocytes” value [4] was 68.56% and the “recovered in boiled human hepatocytes (negative control)” value ([4]; boiled hepatocytes) was roughly 85%. It also gave a Kd (STAT3) of 287 ± 29 nM.
